Laboratory results taken from article PMC4515083, “Selective Targeting of the TPX2 Site of Importin-α Using Fragment-Based Ligand Design” (Chemmedchem, 2015).

Biological target: T1, ΔIBB-importin-α (importin-α1, KPNA2) (Mus musculus, UniProt P52293)
T1 construct: modified pET-30a with TEV-cleavable His6/S-tag, tag cleaved; recombinant
Assay: direct ITC
Format: binding
Excerpt: direct ITC on ΔIBB-importin-α (importin-α1, KPNA2)

Row | SMILES | Kd
1 | NCCCC[C@H](NCc1ccc(-c2cccnc2)cc1)C(N)=O [compound 11] | 4 ± 0.5 mM
2 | NCCCC[C@H](NC(=O)c1ccc(-c2cccnc2)cc1)C(N)=O [compound 14] | > 10 mM
3 | NCCCC[C@@H](NCc1ccc(-c2cccnc2)cc1)C(N)=O [compound 15] | 3.8 ± 0.4 mM
4 | NCCCC[C@H](NCc1cccc(-c2cccnc2)c1)C(N)=O [compound 16] | 1.3 ± 0.1 mM
5 | NCCCC[C@H](NCc1ccc(-c2cccnc2)s1)C(N)=O [compound 17] | 0.9 ± 0.1 mM
